Common to all, as to format: functional
One assay relates to CAKI-1. The assay can be described thus: Anticancer activity against human CAKI-1 cells incubated for 48 hrs by SRB staining assay. (In general: In SRB staining, fixed cells bind dye roughly in proportion to their protein.)
Another assay has as its system MDA-MB-231. The assay can be described thus: Anticancer activity against human MDA-MB-231 cells incubated for 48 hrs by SRB staining assay.
In a further assay the test system is UO-31. The assay can be described thus: Anticancer activity against human UO-31 cells incubated for 48 hrs by SRB staining assay.
Another assay relates to SF-268. The assay can be described thus: Anticancer activity against human SF-268 cells incubated for 48 hrs by SRB staining assay.
In a further assay the test system is HCT-15. The assay can be described thus: Anticancer activity against human HCT-15 cells incubated for 48 hrs by SRB staining assay.
For the next assay, the system named is HL-60(TB). The assay can be described thus: Anticancer activity against human HL-60(TB) cells incubated for 48 hrs by SRB staining assay relative to control.
For assay [1], the system named is SR. Briefly: Anticancer activity against human SR cells incubated for 48 hrs by SRB staining assay relative to control.
For assay [2], the system named is SR. Briefly: Anticancer activity against human SR cells incubated for 48 hrs by SRB staining assay.
For the next assay, the system named is CCRF-CEM. Briefly: Anticancer activity against human CCRF-CEM cells incubated for 48 hrs by SRB staining assay.
For the next assay, the system named is NCI-H322M. The assay can be described thus: Anticancer activity against human NCI-H322M cells incubated for 48 hrs by SRB staining assay.
A further assay has as its system NCI-H460. Briefly: Anticancer activity against human NCI-H460 cells incubated for 48 hrs by SRB staining assay.
Another assay has as its system OVCAR-3. The assay can be described thus: Anticancer activity against human OVCAR-3 cells incubated for 48 hrs by SRB staining assay.
For another assay, the system named is DU-145. Briefly: Anticancer activity against human DU-145 cells incubated for 48 hrs by SRB staining assay relative to control.

Consider one compound from ChEMBL document CHEMBL5096145, “Evaluation of imidazo[2,1-b]thiazole-based anticancer agents in one decade (2011-2020): Current status and future prospects” (Bioorg Med Chem, 2021).

As usually defined, the GI50 is the concentration that inhibits growth by half. The low end stands for greater sensitivity of the cells, the high end for lower sensitivity of the cells.

Regarding `O=C(Cc1csc2nc(-c3ccc(Cl)cc3)cn12)N/N=C/c1ccccc1O`, the GI50 in the assay on CAKI-1 was 776 nM; with MDA-MB-231, 1580 nM; in the assay on UO-31, 501 nM; in the assay with SF-268, 1260 nM; in the assay on HCT-15, 468 nM; in the assay with SR [2], 603 nM. Also, the 50% growth inhibitory concentration (GI50) in the assay on CCRF-CEM is 741 nM; with NCI-H322M it was 1550 nM; in the assay on NCI-H460 it was 1380 nM; with OVCAR-3, 363 nM. Also, the Activity in the assay on HL-60(TB) was 103.5%; in the assay on SR [1], 11.51%; in the assay with DU-145, 108.65%.
